In ChEMBL document CHEMBL4732252, “Generating Selective Leads for Mer Kinase Inhibitors-Example of a Comprehensive Lead-Generation Strategy” (J Med Chem, 2021):
≈ marks a conversion by molar mass, not a printed value.

How the values were obtained:
[1] = biological target: T1, Receptor-type tyrosine-protein kinase FLT3 (Homo sapiens, UniProt P36888); assay: Inhibition of His6/TEV fused-GST-tagged Flt3 (unknown origin) (H564 to S993 residues) using Axltide (CKKSRGDYMTMQJ-acid) peptide as substrate preincubated for 30 mins followed by substrate and ATP addition at Km concentration measured after 75 mins by RapidFire LC-MS analysis
T1 sequence (P36888 whole entry): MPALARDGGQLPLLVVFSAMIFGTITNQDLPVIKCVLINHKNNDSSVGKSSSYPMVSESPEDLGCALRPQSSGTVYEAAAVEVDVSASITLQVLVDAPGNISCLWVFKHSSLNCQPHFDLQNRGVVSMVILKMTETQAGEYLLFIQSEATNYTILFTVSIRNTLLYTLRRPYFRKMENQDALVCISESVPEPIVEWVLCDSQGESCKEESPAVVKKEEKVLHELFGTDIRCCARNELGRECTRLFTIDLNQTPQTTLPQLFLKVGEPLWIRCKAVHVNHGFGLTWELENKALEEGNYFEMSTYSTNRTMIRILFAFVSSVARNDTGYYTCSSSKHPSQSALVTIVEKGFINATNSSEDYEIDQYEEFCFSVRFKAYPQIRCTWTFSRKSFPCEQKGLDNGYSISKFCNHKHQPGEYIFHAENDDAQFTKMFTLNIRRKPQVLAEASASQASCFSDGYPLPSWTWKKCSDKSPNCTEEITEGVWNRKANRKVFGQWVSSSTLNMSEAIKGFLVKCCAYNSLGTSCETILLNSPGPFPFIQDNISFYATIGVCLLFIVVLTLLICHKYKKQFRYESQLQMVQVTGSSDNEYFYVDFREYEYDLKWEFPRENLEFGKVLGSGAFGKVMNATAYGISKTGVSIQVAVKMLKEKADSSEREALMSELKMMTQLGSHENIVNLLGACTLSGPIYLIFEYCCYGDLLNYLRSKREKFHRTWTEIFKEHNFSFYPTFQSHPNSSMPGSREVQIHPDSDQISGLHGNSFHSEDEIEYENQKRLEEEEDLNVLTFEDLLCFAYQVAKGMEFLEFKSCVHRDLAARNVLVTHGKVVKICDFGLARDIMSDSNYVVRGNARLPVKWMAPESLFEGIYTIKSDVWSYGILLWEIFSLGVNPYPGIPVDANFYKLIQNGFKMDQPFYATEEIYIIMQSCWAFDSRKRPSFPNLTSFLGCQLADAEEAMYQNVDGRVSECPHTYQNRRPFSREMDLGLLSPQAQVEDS

[2] = Distribution coefficient, logD of compound at pH 7.4; type: physicochemical; settings: octanol/water
[3] = Intrinsic clearance in rat hepatocytes assessed per 10^6 cells; type: ADME, cell-based, Hepatocyte; settings: read-out: CLH
[4] = biological target: T2, Tyrosine-protein kinase receptor UFO (Homo sapiens, UniProt P30530); assay: (§1) Inhibition of GST-tagged AXL (unknown origin) (464 to 485 residues) using Axltide (CKKSRGDYMTMQJG-acid) peptide as substrate preincubated for 30 mins followed by substrate and ATP addition at Km concentration measured after 180 mins by RapidFire LC-MS analysis
T2 sequence (P30530 whole entry): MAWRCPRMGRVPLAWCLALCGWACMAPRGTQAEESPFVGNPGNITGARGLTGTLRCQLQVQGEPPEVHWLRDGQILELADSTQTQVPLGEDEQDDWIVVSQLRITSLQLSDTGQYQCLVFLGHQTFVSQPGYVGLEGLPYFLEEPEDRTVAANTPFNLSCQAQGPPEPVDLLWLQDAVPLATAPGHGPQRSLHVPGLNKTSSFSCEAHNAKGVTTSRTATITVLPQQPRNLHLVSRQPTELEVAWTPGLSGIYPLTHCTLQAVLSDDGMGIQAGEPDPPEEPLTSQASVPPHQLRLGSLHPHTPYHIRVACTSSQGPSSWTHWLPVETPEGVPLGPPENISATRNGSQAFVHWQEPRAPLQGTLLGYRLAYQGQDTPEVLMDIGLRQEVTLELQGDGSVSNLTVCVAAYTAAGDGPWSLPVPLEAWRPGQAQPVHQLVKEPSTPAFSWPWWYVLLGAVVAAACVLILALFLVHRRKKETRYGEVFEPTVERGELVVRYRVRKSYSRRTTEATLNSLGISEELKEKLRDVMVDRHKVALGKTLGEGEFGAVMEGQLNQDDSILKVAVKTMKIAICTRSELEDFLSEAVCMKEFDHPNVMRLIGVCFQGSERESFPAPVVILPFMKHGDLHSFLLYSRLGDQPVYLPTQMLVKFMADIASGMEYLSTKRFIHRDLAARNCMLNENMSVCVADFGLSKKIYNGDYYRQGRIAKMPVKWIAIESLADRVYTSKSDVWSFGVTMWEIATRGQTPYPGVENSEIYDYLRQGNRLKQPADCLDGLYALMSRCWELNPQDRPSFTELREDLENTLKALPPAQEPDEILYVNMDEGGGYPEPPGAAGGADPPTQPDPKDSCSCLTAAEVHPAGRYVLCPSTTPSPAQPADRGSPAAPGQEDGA

[5] = Intrinsic clearance in human liver microsomes; type: ADME, Microsome; settings: read-out: CLH
[6] = biological target: T3, Tyrosine-protein kinase Mer (Homo sapiens, UniProt Q12866); assay: as §1, with “6His/thrombin cleavage site-fused Avi-tagged dephosphorylated MER” for “GST-tagged AXL”, “(R528” for “(464”, “M999” for “485”, “120” for “180”
T3 sequence (Q12866 whole entry): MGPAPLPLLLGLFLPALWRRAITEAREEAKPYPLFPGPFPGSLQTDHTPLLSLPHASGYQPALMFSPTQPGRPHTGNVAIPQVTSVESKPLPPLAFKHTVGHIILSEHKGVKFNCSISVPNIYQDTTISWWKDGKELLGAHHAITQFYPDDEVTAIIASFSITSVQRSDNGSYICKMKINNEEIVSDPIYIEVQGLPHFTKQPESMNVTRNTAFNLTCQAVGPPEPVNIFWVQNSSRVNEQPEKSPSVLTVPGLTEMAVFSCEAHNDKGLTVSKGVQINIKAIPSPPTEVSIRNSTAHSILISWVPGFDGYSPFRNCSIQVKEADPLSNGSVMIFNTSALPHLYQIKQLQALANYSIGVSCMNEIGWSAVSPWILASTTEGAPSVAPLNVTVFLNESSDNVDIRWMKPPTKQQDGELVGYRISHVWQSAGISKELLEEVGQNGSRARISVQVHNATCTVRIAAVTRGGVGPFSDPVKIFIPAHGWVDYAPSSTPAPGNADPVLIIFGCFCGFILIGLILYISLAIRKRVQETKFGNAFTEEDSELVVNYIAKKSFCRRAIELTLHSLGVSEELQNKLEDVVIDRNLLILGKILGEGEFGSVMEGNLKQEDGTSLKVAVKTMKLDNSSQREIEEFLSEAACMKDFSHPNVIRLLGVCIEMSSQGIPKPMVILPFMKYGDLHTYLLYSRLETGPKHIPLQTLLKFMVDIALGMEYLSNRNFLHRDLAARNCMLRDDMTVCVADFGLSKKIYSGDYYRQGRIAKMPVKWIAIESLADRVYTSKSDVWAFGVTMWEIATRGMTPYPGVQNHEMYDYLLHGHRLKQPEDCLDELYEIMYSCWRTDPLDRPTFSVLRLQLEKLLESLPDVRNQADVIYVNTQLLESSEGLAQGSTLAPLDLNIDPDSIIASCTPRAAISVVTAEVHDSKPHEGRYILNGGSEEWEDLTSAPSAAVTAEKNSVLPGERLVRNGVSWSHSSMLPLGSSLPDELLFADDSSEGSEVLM

[7] = Aqueous solubility of the compound; type: physicochemical
[8] = biological target: T2, Tyrosine-protein kinase receptor UFO; assay: Inhibition of GST-tagged AXL (unknown origin) ([…] residues) using Axltide (CKKSRGDYMTMQJG-acid) peptide as substrate preincubated for 30 mins followed by substrate and ATP addition at Km concentration measured after 40 mins by ADP-Glo Reagent based method
[9] = biological target: T1, Receptor-type tyrosine-protein kinase FLT3; assay: Inhibition of His6/TEV fused-GST-tagged Flt3 (unknown origin) (H564 to S993 residues) using Axltide (CKKSRGDYMTMQJ-acid) peptide as substrate preincubated for 30 mins followed by substrate addition in presence of ATP and measured for 90 mins by ADP-Glo Reagent based method

Row | SMILES | IC50 [1] | logD [2] | hepatocyte CLint [3] | IC50 [4] | microsomal CLint [5] | IC50 [6] | solubility [7] | IC50 [8] | IC50 [9]
1 | O=C(Nc1ccc(Oc2cc(NC(=O)C3CC3)ncn2)cc1)Nc1ccc(CN2CCn3ccnc3C2)c(C(F)(F)F)c1 | 3.16 nM | 4.5 | 9 µL/min/1e6 cells | 398 nM | 16 µL/min/mg | 6.31 nM | 3 µM (≈ 1.78 µg/mL) | – | –
2 | CNc1nc(OC2CCCC2)nc2c1ncn2Cc1c(F)cccc1F | – | 4.3 | 190 µL/min/1e6 cells | – | 240 µL/min/mg | 126 nM | 9 µM (≈ 3.23 µg/mL) | 794 nM | 100 µM
3 | CS(=O)(=O)c1cnc(Nc2ccc(O)cc2)nc1NCc1ccccc1 | 1260 nM | 2.8 | 32 µL/min/1e6 cells | 1580 nM | 5 µL/min/mg | 398 nM | 27 µM (≈ 10 µg/mL) | – | –
4 | CNC(=O)c1cnc(Nc2ccc(OC)cc2C)nc1NC1CCCC1 | – | 4.2 | 130 µL/min/1e6 cells | – | 37 µL/min/mg | 794 nM | 10 µM (≈ 3.55 µg/mL) | 31600 nM | > 79.4 µM
5 | COc1cc2c(Nc3cnc(OCCCC4CCCC4)nc3)ncnc2cc1OCCCN1CCCCC1 | 20 nM | 4.5 | 2 µL/min/1e6 cells | 10 nM | 96 µL/min/mg | 0.794 nM | 130 µM (≈ 67.7 µg/mL) | – | –
6 | COc1cc2c(Nc3cnc(NC(=O)c4cccn4C)nc3)ncnc2cc1OCCCNC1CCCC1 | – | 1.8 | < 1 µL/min/1e6 cells | – | < 3 µL/min/mg | 100 nM | 1000 µM (≈ 517 µg/mL) | 126 nM | 10 µM
